Laboratory results: patent US9840478B2 (MERCK SHARP & DOHME CORP., priority 2013, dated 2017)
Read-outs that look alike come from different tables or passages of the source.

Tested on: HIV-1 (H9IIIB strain)
Test: Cell-based HIV infection assay using a reporter (Cell-Based), MT4-GFP cells
Conditions: 50% normal human serum, mean of at least two independent experiments, read-out: Cell-based IP
Summary of the method: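 MT4-GFP cells (HIV LTR-driven GFP) infected 24 h with HIV-1 H9IIIB at low MOI, then washed and plated with compounds in RPMI + 50% normal human serum, 0.4% DMSO final. Green cells counted at 24 and 48 h; R0 = 48 h/24 h ratio, inhibition normalized to DMSO and triple-drug control; IC50 from 4-parameter fit.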

[1] = Human immunodeficiency virus 1, MT4-GFP cells infected with HIV-1 H9IIIB

| Structure (SMILES) | IC50 [1] [nM] | IC50 (MT4-GFP cells infected with HIV-1 H9IIIB) [nM] |
| --- | --- | --- |
| O=C(C[C@@H](c1ccc(F)cc1)c1cc(F)cc(F)c1)Nc1cncc(F)c1CC[C@H]1CNCCN1C(=O)COc1ccccc1 [Example 343, (3S)-3-(3,5-difluorophenyl)-N-(5-fluoro-4-{2-[(2S)-1-(phenoxyacetyl)piperazin-2-yl]ethyl}pyridin-3-yl)-3-(4-fluorophenyl)propanamide] | 125 | – |
| COC(=O)N[C@H](C(=O)Nc1cncc(F)c1CC[C@@H]1CNCCN1S(C)(=O)=O)[C@@H](c1ccc(F)cc1)c1cc(F)cc(F)c1 [Example 49, methyl ((1S,2S)-1-(3,5-difluorophenyl)-3-((5-fluoro-4-(2-((R)-1-(methylsulfonyl)piperazin-2-yl)ethyl)pyridin-3-yl)amino)-1-(4-fluorophenyl)-3-oxopropan-2-yl)carbamate] | 1700 | – |
| COc1ccc(S(=O)(=O)N2[C@@H](CCc3c(F)cncc3NC(=O)[C@@H](N)[C@@H](c3ccc(Cl)cc3)C3CCOCC3)CNC[C@@H]2C)cc1 [Example 9, (2S,3R)-2-Amino-3-(4-chlorophenyl)-N-(5-fluoro-4-(2-((2S,6S)-1-((4-methoxyphenyl)sulfonyl)-6-methylpiperazin-2-yl)ethyl)pyridin-3-yl)-3-(tetrahydro-2H-pyran-4-yl)propanamide] | 7.1 | – |
| N[C@H](C(=O)Nc1cncc(F)c1CC[C@H]1CNCCN1S(=O)(=O)C1CC1)[C@@H](c1ccc(F)cc1)c1cc(F)cc(F)c1 [Example 33, (βS)-N-(4-{2-[(2S)-1-(cyclopropylsulfonyl)piperazin-2-yl]ethyl}-5-fluoropyridin-3-yl)-3,5-difluoro-β-(4-fluorophenyl)-L-phenylalaninamide] | 25 | – |
| CC(Oc1ccccc1)C(=O)N1CCNC[C@@H]1CCc1c(F)cncc1NC(=O)C[C@@H](c1ccc(F)cc1)c1cc(F)cc(F)c1 (stereo partly drawn) [Example 347, (3S)-3-(3,5-difluorophenyl)-N-(5-fluoro-4-{2-[(2S)-1-(2-phenoxypropanoyl)piper-azin-2-yl]ethyl}pyridin-3-yl)-3-(4-fluorophenyl)propanamide] | 57 | – |
| CN(CC1CC1)S(=O)(=O)N1CCNC[C@@H]1CCc1c(F)cccc1NC(=O)[C@@H](N)C(c1ccc(F)cc1)c1ccc(F)cc1 [Example 69] | – | 360 |
| COC(=O)N[C@H](C(=O)Nc1cncc(F)c1CC[C@H]1CNCCN1S(=O)(=O)C1CC1)[C@@H](c1ccc(F)cc1)c1cc(F)cc(F)c1 [Example 50, (βS)-N-(4-{2-[(2S)-1-(cyclopropylsulfonyl)piperazin-2-yl]ethyl}-5-fluoropyridin-3-yl)-3,5-difluoro-β-(4-fluorophenyl)-Nα-(methoxycarbonyl)-L-phenylalaninamide] | 21 | – |
| COc1ccc(S(=O)(=O)N2[C@@H](CCc3c(F)cccc3NC(=O)[C@@H](N)[C@@H](c3ccc(F)cc3)c3cc(F)cc(F)c3)CNC[C@@H]2C)cc1 [Example 251, (βS)-β-(3,5-difluorophenyl)-4-fluoro-N-[3-fluoro-2-(2-{(2S,6S)-1-[(4-methoxyphenyl)sulfonyl]-6-methylpiperazin-2-yl}ethyl)phenyl]-L-phenylalaninamide] | 4.1 | – |
| C[C@H]1CNC[C@H](CCc2c(F)cccc2NC(=O)[C@@H](N)[C@H](c2cccc(F)c2)c2cccc(Cl)c2)N1S(C)(=O)=O [Example 172, (βR)-3-chloro-N-(3-fluoro-2-{2-[(2S,6S)-6-methyl-1-(methylsulfonyl)piperazin-2-yl]ethyl}phenyl)-β-(3-fluorophenyl)-L-phenylalaninamide] | 180 | – |
| COC(=O)N[C@H](C(=O)Nc1cccc(F)c1CC[C@H]1CNC[C@@H](C)N1S(=O)(=O)c1ccccc1)[C@@H](c1ccc(F)c(F)c1)C1CCOCC1 [Example 293, (βR)-3,4-difluoro-N-(3-fluoro-2-{2-[(2S,6R)-6-methyl-1-(phenylsulfonyl)piperazin-2-yl]ethyl}phenyl)-Nα-(methoxycarbonyl)-β-(tetrahydro-2H-pyran-4-yl)-L-phenylalaninamide] | 8.7 | – |
